Values belong to the compound of their own block, whether it stands above or below them.
What was measured:
Assay in all cases: radiometric filter-binding kinase assay
[1] = biological target: TTK (human) (UniProt P33981)
[2] = biological target: IKBKE (human) (UniProt Q14164)
[3] = biological target: MAPK14 (human) (UniProt Q16539)
[4] = biological target: MAPKAPK5 (human) (UniProt Q8IW41)
[5] = system: SGK1 (human), O00141 [S422D]
[6] = biological target: PKN2 (human) (UniProt Q16513)
[7] = biological target: DYRK2 (human) (UniProt Q92630)
[8] = biological target: EPHB2 (human) (UniProt P29323)
[9] = biological target: IRAK4 (human) (UniProt Q9NWZ3)
[10] = biological target: CLK2 (human) (UniProt P49760)
[11] = biological target: MELK (human) (UniProt Q14680)
[12] = biological target: MARK2 (human) (UniProt Q7KZI7)
[13] = biological target: PIM1 (human) (UniProt P11309)
[14] = system: RPS6KB1 (human), P23443 [T412E]
[15] = biological target: FLT1 (human) (UniProt P17948)
[16] = biological target: HIPK2 (human) (UniProt Q9H2X6)
[17] = biological target: DYRK3 (human) (UniProt O43781)
[18] = biological target: RPS6KA1 KD1 KD2 (human) (UniProt Q15418)
[19] = biological target: TAOK1 (human) (UniProt Q7L7X3)
[20] = biological target: MYLK (human) (UniProt Q15746)
[21] = biological target: EPHB4 (human) (UniProt P54760)
[22] = biological target: NEK2 (human) (UniProt P51955)
[23] = system: ROCK2 (rat); conditions: accession and sequence are those of the human protein
[24] = biological target: MAP3K7 TAB1 (human) (UniProt Q15750+O43318)
[25] = biological target: CHEK2 (human) (UniProt O96017)
[26] = biological target: DAPK1 (human) (UniProt P53355)
[27] = biological target: EPHA2 (human) (UniProt P29317)
[28] = biological target: PRKCA (human) (UniProt P17252)
[29] = biological target: GCK (human) (UniProt Q12851)
[30] = biological target: MAPK12 (human) (UniProt P53778)
[31] = biological target: EPHB1 (human) (UniProt P54762)
[32] = biological target: PIM3 (human) (UniProt Q86V86)
[33] = biological target: MAPKAPK2 (human) (UniProt P49137)
[34] = biological target: STK3 (human) (UniProt Q13188)
[35] = biological target: MARK1 (human) (UniProt Q9P0L2)

Sequence of DYRK2 (human) (Q92630 whole entry, looked up): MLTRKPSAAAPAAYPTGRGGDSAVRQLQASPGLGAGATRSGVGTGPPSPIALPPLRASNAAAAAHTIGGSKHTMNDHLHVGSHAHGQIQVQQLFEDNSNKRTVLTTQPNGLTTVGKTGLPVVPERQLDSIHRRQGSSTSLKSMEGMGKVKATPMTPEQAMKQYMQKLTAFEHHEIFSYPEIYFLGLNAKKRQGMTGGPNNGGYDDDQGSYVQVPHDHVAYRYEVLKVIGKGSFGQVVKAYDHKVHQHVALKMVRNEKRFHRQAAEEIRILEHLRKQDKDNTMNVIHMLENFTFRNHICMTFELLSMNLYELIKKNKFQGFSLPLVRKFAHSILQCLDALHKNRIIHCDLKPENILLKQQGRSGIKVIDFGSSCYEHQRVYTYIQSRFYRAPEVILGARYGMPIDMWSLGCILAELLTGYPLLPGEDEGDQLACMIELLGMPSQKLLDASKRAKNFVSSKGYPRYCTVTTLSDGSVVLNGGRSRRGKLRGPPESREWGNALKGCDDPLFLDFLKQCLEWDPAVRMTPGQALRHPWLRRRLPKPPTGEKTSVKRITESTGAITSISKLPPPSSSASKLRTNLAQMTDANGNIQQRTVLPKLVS
Sequence of TAOK1 (human) (Q7L7X3 whole entry, looked up): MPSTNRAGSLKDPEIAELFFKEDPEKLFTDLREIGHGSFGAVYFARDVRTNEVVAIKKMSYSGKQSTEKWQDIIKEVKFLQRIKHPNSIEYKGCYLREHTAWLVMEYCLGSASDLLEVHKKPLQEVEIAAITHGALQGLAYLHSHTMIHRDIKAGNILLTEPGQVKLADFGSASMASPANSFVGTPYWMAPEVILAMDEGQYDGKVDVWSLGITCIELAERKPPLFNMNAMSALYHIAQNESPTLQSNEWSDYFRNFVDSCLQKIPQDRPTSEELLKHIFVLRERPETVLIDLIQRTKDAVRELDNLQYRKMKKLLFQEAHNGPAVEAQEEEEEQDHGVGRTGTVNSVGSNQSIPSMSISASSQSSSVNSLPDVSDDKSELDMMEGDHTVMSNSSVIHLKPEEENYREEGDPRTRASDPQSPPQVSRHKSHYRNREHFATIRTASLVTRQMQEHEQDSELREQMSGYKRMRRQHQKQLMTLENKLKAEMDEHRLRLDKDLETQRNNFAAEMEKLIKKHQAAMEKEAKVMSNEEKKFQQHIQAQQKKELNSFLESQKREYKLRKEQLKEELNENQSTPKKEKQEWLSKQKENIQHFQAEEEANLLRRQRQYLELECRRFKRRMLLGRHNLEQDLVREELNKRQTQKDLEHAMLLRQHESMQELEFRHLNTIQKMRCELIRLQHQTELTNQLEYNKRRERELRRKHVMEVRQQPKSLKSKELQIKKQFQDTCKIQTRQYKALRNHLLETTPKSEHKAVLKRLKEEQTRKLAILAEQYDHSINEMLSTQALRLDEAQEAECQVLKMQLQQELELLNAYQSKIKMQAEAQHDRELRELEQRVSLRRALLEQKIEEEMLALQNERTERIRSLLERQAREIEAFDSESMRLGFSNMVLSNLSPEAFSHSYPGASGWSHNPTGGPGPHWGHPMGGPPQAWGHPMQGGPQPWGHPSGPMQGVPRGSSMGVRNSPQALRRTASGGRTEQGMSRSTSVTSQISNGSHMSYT
Sequence of IRAK4 (human) (Q9NWZ3 whole entry, looked up): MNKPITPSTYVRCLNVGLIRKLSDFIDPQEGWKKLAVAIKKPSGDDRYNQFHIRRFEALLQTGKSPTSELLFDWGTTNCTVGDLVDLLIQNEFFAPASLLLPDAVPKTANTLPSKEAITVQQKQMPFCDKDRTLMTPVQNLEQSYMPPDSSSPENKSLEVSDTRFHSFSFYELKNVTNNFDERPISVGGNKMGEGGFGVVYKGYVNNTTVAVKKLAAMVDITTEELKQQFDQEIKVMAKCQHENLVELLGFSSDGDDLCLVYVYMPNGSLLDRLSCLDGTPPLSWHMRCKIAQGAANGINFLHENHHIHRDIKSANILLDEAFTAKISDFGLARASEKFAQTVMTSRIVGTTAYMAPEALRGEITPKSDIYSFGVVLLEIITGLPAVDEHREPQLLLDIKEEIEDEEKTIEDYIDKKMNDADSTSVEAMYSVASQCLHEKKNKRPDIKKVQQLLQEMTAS
Sequence of EPHB1 (human) (P54762 whole entry, looked up): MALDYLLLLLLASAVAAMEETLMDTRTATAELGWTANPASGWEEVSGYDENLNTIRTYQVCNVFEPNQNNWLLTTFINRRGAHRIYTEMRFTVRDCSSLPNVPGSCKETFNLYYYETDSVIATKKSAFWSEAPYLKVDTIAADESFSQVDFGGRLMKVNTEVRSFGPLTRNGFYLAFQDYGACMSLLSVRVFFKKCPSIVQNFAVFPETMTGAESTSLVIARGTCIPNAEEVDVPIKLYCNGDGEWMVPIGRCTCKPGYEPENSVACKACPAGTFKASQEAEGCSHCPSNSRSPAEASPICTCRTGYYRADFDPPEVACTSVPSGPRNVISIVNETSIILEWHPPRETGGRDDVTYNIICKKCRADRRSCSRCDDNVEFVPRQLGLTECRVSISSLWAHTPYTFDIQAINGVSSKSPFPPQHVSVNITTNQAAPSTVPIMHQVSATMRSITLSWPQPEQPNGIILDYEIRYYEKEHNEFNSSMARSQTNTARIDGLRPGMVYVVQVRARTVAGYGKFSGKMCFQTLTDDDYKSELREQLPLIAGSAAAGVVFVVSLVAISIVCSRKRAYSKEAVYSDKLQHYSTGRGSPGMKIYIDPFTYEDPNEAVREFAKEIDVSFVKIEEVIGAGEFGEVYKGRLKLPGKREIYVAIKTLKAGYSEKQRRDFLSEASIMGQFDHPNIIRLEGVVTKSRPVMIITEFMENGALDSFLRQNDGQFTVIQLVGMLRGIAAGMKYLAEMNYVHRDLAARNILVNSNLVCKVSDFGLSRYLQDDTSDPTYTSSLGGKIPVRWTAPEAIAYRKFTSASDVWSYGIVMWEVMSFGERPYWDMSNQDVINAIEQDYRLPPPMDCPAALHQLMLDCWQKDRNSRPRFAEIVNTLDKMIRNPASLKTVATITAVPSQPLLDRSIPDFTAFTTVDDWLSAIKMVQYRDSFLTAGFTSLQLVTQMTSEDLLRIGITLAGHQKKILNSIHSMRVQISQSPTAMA
Sequence of IKBKE (human) (Q14164 whole entry, looked up): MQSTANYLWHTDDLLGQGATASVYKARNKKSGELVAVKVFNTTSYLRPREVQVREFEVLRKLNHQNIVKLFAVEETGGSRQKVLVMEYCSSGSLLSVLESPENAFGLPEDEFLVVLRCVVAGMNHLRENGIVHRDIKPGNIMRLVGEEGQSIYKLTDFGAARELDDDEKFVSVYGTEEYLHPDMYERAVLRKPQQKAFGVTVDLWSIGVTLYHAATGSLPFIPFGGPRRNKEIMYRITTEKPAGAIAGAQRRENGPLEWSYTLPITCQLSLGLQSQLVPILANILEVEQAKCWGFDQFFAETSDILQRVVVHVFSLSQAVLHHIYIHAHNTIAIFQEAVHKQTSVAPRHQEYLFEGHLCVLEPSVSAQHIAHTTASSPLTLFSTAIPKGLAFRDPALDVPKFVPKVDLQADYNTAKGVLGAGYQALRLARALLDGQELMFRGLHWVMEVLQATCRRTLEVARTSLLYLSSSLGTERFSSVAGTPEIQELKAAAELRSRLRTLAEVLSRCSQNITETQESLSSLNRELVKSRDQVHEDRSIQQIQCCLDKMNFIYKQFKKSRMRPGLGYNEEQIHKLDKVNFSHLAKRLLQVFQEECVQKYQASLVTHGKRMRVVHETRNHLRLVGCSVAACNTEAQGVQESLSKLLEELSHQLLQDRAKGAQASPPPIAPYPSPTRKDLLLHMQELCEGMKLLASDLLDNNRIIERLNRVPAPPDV

residual activity ([1]; compound 1.0 µM): 89% | residual activity ([1]; compound 10.0 µM): 66% | residual activity ([2]; compound 1.0 µM): 87% | residual activity ([2]; compound 10.0 µM): 96% | residual activity ([3]; compound 1.0 µM): 102% | residual activity ([3]; compound 10.0 µM): 91% | residual activity ([4]; compound 1.0 µM): 90% | residual activity ([4]; compound 10.0 µM): 88% | residual activity ([5]; compound 1.0 µM): 96% | residual activity ([5]; compound 10.0 µM): 69% | residual activity ([6]; compound 1.0 µM): 94% | residual activity ([6]; compound 10.0 µM): 53% | residual activity ([7]; compound 1.0 µM): 91% | residual activity ([7]; compound 10.0 µM): 91% | residual activity ([8]; compound 1.0 µM): 119% | residual activity ([8]; compound 10.0 µM): 113% | residual activity ([9]; compound 1.0 µM): 124% | residual activity ([9]; compound 10.0 µM): 70% | residual activity ([10]; compound 1.0 µM): 43% | residual activity ([10]; compound 10.0 µM): 7% | residual activity ([11]; compound 1.0 µM): 88% | residual activity ([11]; compound 10.0 µM): 29% | residual activity ([12]; compound 1.0 µM): 89% | residual activity ([12]; compound 10.0 µM): 96% | residual activity ([13]; compound 1.0 µM): 63% | residual activity ([13]; compound 10.0 µM): 18% | residual activity ([14]; compound 1.0 µM): 88% | residual activity ([14]; compound 10.0 µM): 53% | residual activity ([15]; compound 1.0 µM): 101% | residual activity ([15]; compound 10.0 µM): 53% | residual activity ([16]; compound 1.0 µM): 80% | residual activity ([16]; compound 10.0 µM): 59% | residual activity ([17]; compound 1.0 µM): 84% | residual activity ([17]; compound 10.0 µM): 40% | residual activity ([18]; compound 1.0 µM): 45% | residual activity ([18]; compound 10.0 µM): 6% | residual activity ([19]; compound 1.0 µM): 77% | residual activity ([19]; compound 10.0 µM): 57% | residual activity ([20]; compound 1.0 µM): 70% | residual activity ([20]; compound 10.0 µM): 25% | residual activity ([21]; compound 1.0 µM): 90% | residual activity ([21]; compound 10.0 µM): 86% | residual activity ([22]; compound 1.0 µM): 85% | residual activity ([22]; compound 10.0 µM): 94% | residual activity ([23]; compound 1.0 µM): 88% | residual activity ([23]; compound 10.0 µM): 61% | residual activity ([24]; compound 1.0 µM): 73% | residual activity ([24]; compound 10.0 µM): 39% | residual activity ([25]; compound 1.0 µM): 60% | residual activity ([25]; compound 10.0 µM): 34% | residual activity ([26]; compound 1.0 µM): 68% | residual activity ([26]; compound 10.0 µM): 46% | residual activity ([27]; compound 1.0 µM): 99% | residual activity ([27]; compound 10.0 µM): 78% | residual activity ([28]; compound 1.0 µM): 117% | residual activity ([28]; compound 10.0 µM): 55% | residual activity ([29]; compound 1.0 µM): 77% | residual activity ([29]; compound 10.0 µM): 41% | residual activity ([30]; compound 1.0 µM): 94% | residual activity ([30]; compound 10.0 µM): 72% | residual activity ([31]; compound 1.0 µM): 96% | residual activity ([31]; compound 10.0 µM): 100% | residual activity ([32]; compound 1.0 µM): 56% | residual activity ([32]; compound 10.0 µM): 27% | residual activity ([33]; compound 1.0 µM): 115% | residual activity ([33]; compound 10.0 µM): 95% | residual activity ([34]; compound 1.0 µM): 83% | residual activity ([34]; compound 10.0 µM): 34% | residual activity ([35]; compound 1.0 µM): 88% | residual activity ([35]; compound 10.0 µM): 95%
SMILES: N#Cc1c(C2CCNCC2)cc(-c2c(O)cccc2OCC2CC2)nc1N

residual activity ([1]; compound 1.0 µM): 100% | residual activity ([1]; compound 10.0 µM): 80% | residual activity ([2]; compound 10.0 µM): 109% | residual activity ([3]; compound 1.0 µM): 100% | residual activity ([3]; compound 10.0 µM): 101% | residual activity ([4]; compound 1.0 µM): 96% | residual activity ([4]; compound 10.0 µM): 62% | residual activity ([5]; compound 1.0 µM): 109% | residual activity ([5]; compound 10.0 µM): 107% | residual activity ([6]; compound 1.0 µM): 106% | residual activity ([6]; compound 10.0 µM): 97% | residual activity ([7]; compound 1.0 µM): 109% | residual activity ([7]; compound 10.0 µM): 86% | residual activity ([8]; compound 1.0 µM): 104% | residual activity ([8]; compound 10.0 µM): 62% | residual activity ([9]; compound 1.0 µM): 68% | residual activity ([9]; compound 10.0 µM): 28% | residual activity ([10]; compound 1.0 µM): 89% | residual activity ([10]; compound 10.0 µM): 49% | residual activity ([11]; compound 1.0 µM): 71% | residual activity ([11]; compound 10.0 µM): 44% | residual activity ([12]; compound 1.0 µM): 97% | residual activity ([13]; compound 1.0 µM): 96% | residual activity ([13]; compound 10.0 µM): 87% | residual activity ([14]; compound 1.0 µM): 100% | residual activity ([14]; compound 10.0 µM): 98% | residual activity ([15]; compound 1.0 µM): 45% | residual activity ([15]; compound 10.0 µM): 9% | residual activity ([16]; compound 1.0 µM): 94% | residual activity ([16]; compound 10.0 µM): 52% | residual activity ([17]; compound 1.0 µM): 111% | residual activity ([17]; compound 10.0 µM): 109% | residual activity ([18]; compound 1.0 µM): 101% | residual activity ([18]; compound 10.0 µM): 95% | residual activity ([19]; compound 1.0 µM): 87% | residual activity ([19]; compound 10.0 µM): 69% | residual activity ([20]; compound 1.0 µM): 96% | residual activity ([20]; compound 10.0 µM): 49% | residual activity ([21]; compound 1.0 µM): 101% | residual activity ([21]; compound 10.0 µM): 55% | residual activity ([22]; compound 1.0 µM): 99% | residual activity ([22]; compound 10.0 µM): 92% | residual activity ([23]; compound 1.0 µM): 95% | residual activity ([23]; compound 10.0 µM): 91% | residual activity ([24]; compound 1.0 µM): 92% | residual activity ([24]; compound 10.0 µM): 53% | residual activity ([25]; compound 1.0 µM): 74% | residual activity ([25]; compound 10.0 µM): 35% | residual activity ([26]; compound 1.0 µM): 102% | residual activity ([26]; compound 10.0 µM): 86% | residual activity ([27]; compound 1.0 µM): 87% | residual activity ([27]; compound 10.0 µM): 52% | residual activity ([28]; compound 1.0 µM): 93% | residual activity ([28]; compound 10.0 µM): 86% | residual activity ([29]; compound 1.0 µM): 69% | residual activity ([29]; compound 10.0 µM): 17% | residual activity ([30]; compound 1.0 µM): 93% | residual activity ([30]; compound 10.0 µM): 94% | residual activity ([31]; compound 1.0 µM): 117% | residual activity ([32]; compound 1.0 µM): 111% | residual activity ([32]; compound 10.0 µM): 68% | residual activity ([33]; compound 1.0 µM): 98% | residual activity ([34]; compound 1.0 µM): 90% | residual activity ([34]; compound 10.0 µM): 53% | residual activity ([35]; compound 1.0 µM): 93% | residual activity ([35]; compound 10.0 µM): 67%
SMILES: NC(=O)c1c(NC(=O)C2CC2)sc2c1CCCC2

Reference: the kinase profiling compilation of Christmann-Franck et al. (2016)
